For 24 compounds, IC50 results are on record in patent US20230295130A1, “COMPOUND USEFUL AS CDK7 KINASE INHIBITOR AND USE THEREOF” (TYK MEDICINES, INC., priority 2020, published 2023).

Bounds are passed on as bounds.

Assay [1] addresses CDK7/Cyclin H/MAT1 kinase (Homo sapiens (Human), UniProt P50613). Briefly: Enzyme activity test, mobility shift assay (Table 1). It counts as biochemical. The settings on record: 2 mM ATP; pre-incubated 0 and 60 minutes.
The target in a further assay is CDK2/Cyclin El (Homo sapiens (Human), UniProt P24941). Described as above. In kind it is biochemical. The settings on record: 2 mM ATP; read-out: CDK2 kinase IC50. Here is the method:
(§1) The compound powder was dissolved in 100% DMSO to prepare a 10 mM storage solution. The storage solution was further diluted to 0.5 mM as the initial concentration, and continuously diluted 3 times to obtain 10 compound solutions with different concentrations. The compound and enzyme were pre-incubated for 0 minutes and 60 minutes, respectively, using duplicate detection.
(§2) was used as a positive control, and Mobility shift assay method was used to detect CDK kinase (such as CDK7, CDK9, CDK12 and CDK2) activity of the compounds.

The target of the next assay is CDK9/Cyclin Tl (Homo sapiens (Human), UniProt P50750). The assay is described as above. In kind it is biochemical. To be noted: 2 mM ATP; read-out: CDK9 kinase IC50. On the procedure: as §1, §2
Assay [2] addresses CDK12 (aa686-1082)/Cyclin K (Homo sapiens (Human), UniProt Q9NYV4). The description is as above. It counts as biochemical. The settings on record: 2 mM ATP; read-out: CDK12 kinase IC50. On the procedure: The compound powder was dissolved in 100% DMSO to prepare a 10 mM storage solution. The storage solution was further diluted to 0.5 mM as the initial concentration, and continuously diluted 3 times to obtain 10 compound solutions with different concentrations. The compound and enzyme were pre-incubated for 0 minutes and 60 minutes, respectively, using duplicate detection. Compound Staurosporine having a structural formula of
as §2

Assay [3] relates to ovarian cancer cells OVCAR3. In words: Cell anti-proliferation experiment, MTT (Table 2). To be noted: Homo sapiens, OVCAR-3, 72 h, incubate 3 days. It counts as cell-based. From the text: (§3) Human breast cancer cells MDA-MB 231, MDA-MB453, ovarian cancer cells OVCAR3 and A2780, colorectal cancer cells HCT-116 and WiDr, and lung cancer cell Calu-6 were purchased from BNCC. DMEM medium (Bio-Channel), DMSO (dimethyl sulfoxide), MTT (thiazole blue), 0.25% EDTA-Tripsin (pancreatin digestive juice), 1×PBS (phosphate buffer, PH7.2), 96-well plate (Corning), fetal bovine serum (FBS), 10,000 U/mL penicillin-G/streptomycin, high-speed freezing centrifuge (EPPENDORF 5810R), enzyme-linked immunosorbent assay (Tecan Spark).
(§4) 1. Cell Plating • A) Tumor cells were cultured to 80-90% density in DMEM (high sugar, containing 10% FBS and 100 U/mL penicillin-G/streptomycin) at 37° C., 5% CO2 and saturated humidity. • B) The culture medium was removed from the 10 cm culture dish. • C) Cells were washed with 10 ml 1×PBS. • D) 4 ml of 0.25% EDTA-Tripsin was added to an incubator to digest pancreatin for 5 minutes at 37° C. and 5% CO2, transferred to a 15 ml centrifuge tube, centrifuged for 5 minutes at 200 g, and supernatant was discarded to obtain cell precipitation. • E) The cell precipitation was resuspended with 4 ml DMEM medium, counted and adjusted to 50,000 cells/ml. • F) Cell suspension was added to a 96-well plate with a volume of 100 μL per well and cultured overnight in a 5% CO2 incubator at 37° C.
(§5) Compound Dilution • A) Preparing the tested compound gradient dilution solution: the tested compounds were prepared into 10 mM and 1 mM storage solution respectively. Firstly, 1 μl and 0.5 μl of 10 mM storage solution were dissolved in 1 ml of DMSO-free culture solution, respectively, to obtain diluted compounds with concentrations of 10 and 5 μM. Then, 1.5 μl of 1 mM storage solution was dissolved in 1.5 ml of DMSO-free culture solution to obtain a dilution compound with a concentration of 1 μM, and then diluted with a 3-fold continuous gradient with […] culture solution for a total of 7 concentrations. The concentrations of all 10 diluted compounds mentioned above were as follows: • 10 μM, 5 μM, 1 μM, 333.33 nM, 111.11 nM, 37.03 nM, 12.35 nM, 4.15 nM, 1.37 nM, 0.46 nM • B) After full mixing, 100 μL of culture compound solution was taken to replace the culture solution in the cell culture plate, with 4 duplicated wells at each concentration; • C) The cells were transferred to incubator to incubate for 3 days.
(§6) 3. MTT Detection • A) The cell culture plate was taken out and added with 5 mg/ml MTT 10 μL in the biosafety cabinet; • B) The cell culture plate was put back into the incubator and continued to incubate for 3 hours; • C) The cell culture plate was taken out to remove the culture solution, 100 μL isopropanol (containing 0.4 mM HCl, 0.1% NP-40) was added, shaking at room temperature for 30 minutes; • D) The absorbance value was measured at 570 nm on TECAN enzyme linked immunosorbent assay.

For assay [4], the system named is ovarian cancer cells A2780. In words: Cell anti-proliferation experiment, MTT (Table 2). It counts as cell-based, human. To be noted: Homo sapiens, A2780, 72 h, incubate 3 days.
Excerpt: as §3, §4, §5, §6

Chain of CDK9/Cyclin Tl (P50750 whole entry, the tested form may be a part): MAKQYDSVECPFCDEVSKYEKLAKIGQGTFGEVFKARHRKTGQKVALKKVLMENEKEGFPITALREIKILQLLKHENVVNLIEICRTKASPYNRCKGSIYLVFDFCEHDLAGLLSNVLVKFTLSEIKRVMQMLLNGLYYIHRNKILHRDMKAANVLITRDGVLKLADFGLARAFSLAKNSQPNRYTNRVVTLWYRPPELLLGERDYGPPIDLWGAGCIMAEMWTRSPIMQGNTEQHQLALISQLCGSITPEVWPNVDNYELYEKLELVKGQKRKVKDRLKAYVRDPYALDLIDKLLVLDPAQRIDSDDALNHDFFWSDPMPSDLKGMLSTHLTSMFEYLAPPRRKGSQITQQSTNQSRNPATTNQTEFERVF
Chain of CDK9/Cyclin Tl (O60563 whole entry partner, the tested form may be a part): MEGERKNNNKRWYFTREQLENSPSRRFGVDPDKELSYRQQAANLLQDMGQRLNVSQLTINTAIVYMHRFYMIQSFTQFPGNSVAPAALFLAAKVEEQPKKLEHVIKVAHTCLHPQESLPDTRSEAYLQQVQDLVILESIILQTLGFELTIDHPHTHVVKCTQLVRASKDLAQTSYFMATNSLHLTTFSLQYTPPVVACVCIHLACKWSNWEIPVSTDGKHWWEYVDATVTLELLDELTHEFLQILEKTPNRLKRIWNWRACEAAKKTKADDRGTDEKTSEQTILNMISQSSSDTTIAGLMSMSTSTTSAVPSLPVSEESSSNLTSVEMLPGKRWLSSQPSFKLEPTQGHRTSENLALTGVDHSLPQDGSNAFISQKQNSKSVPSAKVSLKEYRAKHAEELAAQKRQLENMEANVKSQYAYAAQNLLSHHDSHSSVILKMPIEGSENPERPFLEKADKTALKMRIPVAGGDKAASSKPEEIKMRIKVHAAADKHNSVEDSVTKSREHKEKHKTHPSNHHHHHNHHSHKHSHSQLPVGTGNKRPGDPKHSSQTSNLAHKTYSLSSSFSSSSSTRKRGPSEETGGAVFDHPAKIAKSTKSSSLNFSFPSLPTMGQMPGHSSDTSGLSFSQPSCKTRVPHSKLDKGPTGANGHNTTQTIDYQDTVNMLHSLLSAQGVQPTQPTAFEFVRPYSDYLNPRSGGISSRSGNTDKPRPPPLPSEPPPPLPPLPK
Chain of CDK7/Cyclin H/MAT1 kinase (P50613 whole entry): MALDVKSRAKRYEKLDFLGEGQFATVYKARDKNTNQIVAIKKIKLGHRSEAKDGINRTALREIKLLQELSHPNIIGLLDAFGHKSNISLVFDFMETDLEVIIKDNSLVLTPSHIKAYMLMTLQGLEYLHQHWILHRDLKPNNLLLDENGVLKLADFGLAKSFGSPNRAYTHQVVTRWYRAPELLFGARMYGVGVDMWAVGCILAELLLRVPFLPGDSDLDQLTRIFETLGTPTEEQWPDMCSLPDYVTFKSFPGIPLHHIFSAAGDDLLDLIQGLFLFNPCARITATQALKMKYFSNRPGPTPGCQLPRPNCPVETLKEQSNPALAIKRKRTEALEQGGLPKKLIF
Chain of CDK7/Cyclin H/MAT1 kinase (P51946 whole entry partner): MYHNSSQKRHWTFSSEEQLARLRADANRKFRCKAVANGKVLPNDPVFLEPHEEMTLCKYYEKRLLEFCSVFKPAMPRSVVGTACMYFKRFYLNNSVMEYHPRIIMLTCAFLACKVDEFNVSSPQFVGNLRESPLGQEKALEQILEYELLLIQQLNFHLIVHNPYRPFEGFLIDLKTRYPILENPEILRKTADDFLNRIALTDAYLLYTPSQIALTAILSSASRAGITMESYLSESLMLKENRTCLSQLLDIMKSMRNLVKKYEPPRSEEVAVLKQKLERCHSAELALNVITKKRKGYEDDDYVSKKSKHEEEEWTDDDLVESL
Chain of CDK7/Cyclin H/MAT1 kinase (P51948 whole entry partner): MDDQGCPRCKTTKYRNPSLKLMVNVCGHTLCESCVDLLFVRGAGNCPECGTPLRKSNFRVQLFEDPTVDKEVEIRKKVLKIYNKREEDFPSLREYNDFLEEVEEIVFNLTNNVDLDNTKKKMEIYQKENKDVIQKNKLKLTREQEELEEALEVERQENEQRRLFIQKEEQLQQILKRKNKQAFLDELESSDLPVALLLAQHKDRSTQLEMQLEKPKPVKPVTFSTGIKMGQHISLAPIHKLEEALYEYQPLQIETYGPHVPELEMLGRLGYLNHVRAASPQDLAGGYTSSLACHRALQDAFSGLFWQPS
Chain of CDK12 (aa686-1082)/Cyclin K (Q9NYV4 686-1082): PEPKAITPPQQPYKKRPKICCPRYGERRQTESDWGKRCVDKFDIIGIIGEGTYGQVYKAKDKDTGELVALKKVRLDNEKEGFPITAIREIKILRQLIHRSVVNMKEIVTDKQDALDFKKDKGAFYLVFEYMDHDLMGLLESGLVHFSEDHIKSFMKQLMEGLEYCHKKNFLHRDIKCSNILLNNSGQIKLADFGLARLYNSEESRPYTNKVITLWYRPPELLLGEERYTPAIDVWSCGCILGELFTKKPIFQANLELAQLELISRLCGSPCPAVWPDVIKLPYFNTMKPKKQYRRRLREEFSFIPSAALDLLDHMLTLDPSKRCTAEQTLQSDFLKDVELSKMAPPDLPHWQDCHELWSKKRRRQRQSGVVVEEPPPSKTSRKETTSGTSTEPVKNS
Chain of CDK12 (aa686-1082)/Cyclin K (O75909 whole entry partner, the tested form may be a part): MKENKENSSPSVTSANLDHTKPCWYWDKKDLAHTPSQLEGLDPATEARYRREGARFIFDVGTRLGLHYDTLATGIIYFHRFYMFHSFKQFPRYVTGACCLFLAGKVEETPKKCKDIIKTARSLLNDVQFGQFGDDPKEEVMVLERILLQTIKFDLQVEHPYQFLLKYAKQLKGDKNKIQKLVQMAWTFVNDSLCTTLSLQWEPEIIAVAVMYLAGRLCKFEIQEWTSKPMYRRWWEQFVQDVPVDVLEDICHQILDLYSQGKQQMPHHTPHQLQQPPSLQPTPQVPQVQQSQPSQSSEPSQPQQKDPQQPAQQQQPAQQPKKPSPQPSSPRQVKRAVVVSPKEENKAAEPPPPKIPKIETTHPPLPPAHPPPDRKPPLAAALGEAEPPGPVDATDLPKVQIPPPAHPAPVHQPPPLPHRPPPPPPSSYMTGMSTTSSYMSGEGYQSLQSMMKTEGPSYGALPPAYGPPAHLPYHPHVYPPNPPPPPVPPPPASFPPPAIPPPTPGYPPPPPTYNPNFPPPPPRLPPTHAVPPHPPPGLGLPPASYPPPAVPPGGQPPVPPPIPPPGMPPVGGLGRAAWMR

As for `COC(=O)Nc1ccc2c(-c3nc(N[C@H]4CCC5(CC5)NC4)ncc3C(F)(F)F)c[nH]c2c1C(C)=O` [Example T-135], the IC50 is less than 0.05 µM in assay [1]; greater than 0.5 µM on CDK2/Cyclin El; greater than 0.5 µM on CDK9/Cyclin Tl; greater than 0.5 µM in assay [2]; 161 nM in assay [3]; 4.61 nM in assay [4].
As for `COC(=O)Nc1ccc2c(-c3nc(N[C@H]4CCC(C)(C)NC4)ncc3C(F)(F)F)c[nH]c2c1OCC(F)(F)F` [Example T-91], the IC50 in assay [1] was less than 0.05 µM; in assay [3], 80.2 nM; in assay [4], 8.75 nM.
Take `COC(=O)Nc1ccc2c(-c3nc(N[C@H]4CCCNC4)ncc3C(F)(F)F)c[nH]c2c1C(C)=O` [Example T-98]: the values for the IC50 in assay [3] and in assay [4] were 127 nM and 5.55 nM, respectively.
With `COC(=O)Nc1ccc2c(-c3nc(N[C@H]4CCC5(CC5)NC4)ncc3C(F)(F)F)c[nH]c2c1C(F)F` [Example T-156], the IC50 in assay [1] is less than 0.05 µM; on CDK2/Cyclin El it was greater than 0.5 µM; on CDK9/Cyclin Tl it was greater than 0.5 µM; in assay [2], greater than 0.5 µM; in assay [4], 1.23 nM.
Take `COC(=O)Nc1ccc2c(-c3nc(N[C@H]4CCC5(CC5)NC4)ncc3C(F)(F)F)c[nH]c2c1OCC(F)(F)F` [Example T-150]: the IC50 in assay [1] was less than 0.05 µM; on CDK2/Cyclin El it was greater than 0.5 µM; on CDK9/Cyclin Tl, greater than 0.5 µM; in assay [2] it was greater than 0.5 µM; in assay [3], 161 nM; in assay [4], 13.5 nM.
Turning to `COC(=O)Nc1ccc2c(-c3nc(N[C@H]4CCC5(CC5)NC4)ncc3C(F)(F)F)c[nH]c2c1Br` [Example T-142], the IC50 in assay [1] was less than 0.05 µM; on CDK2/Cyclin El, greater than 0.5 µM; on CDK9/Cyclin Tl it was greater than 0.5 µM; in assay [2] it was greater than 0.5 µM; in assay [3] it was 120 nM; in assay [4] it was 5.05 nM.
`COC(=O)Nc1ccc2c(-c3nc(N[C@H]4CCC(C)(C)NC4)ncc3C(F)(F)F)c[nH]c2c1OC` [Example T-132]: the IC50 in assay [1] was less than 0.05 µM; at CDK2/Cyclin El, greater than 0.5 µM; on CDK9/Cyclin Tl it was greater than 0.5 µM; in assay [2], greater than 0.5 µM; in assay [3], 100 nM; in assay [4], 4.52 nM.
Turning to `COC(=O)Nc1ccc2c(-c3nc(N[C@H]4CCCNC4)ncc3C(F)(F)F)c[nH]c2c1OC(F)(F)F` [Example T-122], the IC50 in assay [1] is less than 0.05 µM; in assay [4] it was 0.54 nM.
As for `COC(=O)Nc1ccc2c(-c3nc(N[C@H]4CCCNC4)ncc3C(F)(F)F)c[nH]c2c1C(C)(F)F` [Example T-99], the IC50 was less than 0.05 µM in assay [1], 53.4 nM in assay [3] and 1.54 nM in assay [4].
As for `COC(=O)Nc1ccc2c(-c3nc(N[C@H]4CCC5(CC5)NC4)ncc3C(F)(F)F)c[nH]c2c1C1CC1` [Example T-128], the IC50 is less than 0.05 µM in assay [1]; greater than 0.5 µM on CDK2/Cyclin El; greater than 0.5 µM at CDK9/Cyclin Tl; greater than 0.5 µM in assay [2]; 9.08 nM in assay [3]; 8.68 nM in assay [4].
For the compound `COC(=O)Nc1ccc2c(-c3nc(N[C@H]4CCC(C)(C)NC4)ncc3C(F)(F)F)c[nH]c2c1S(=O)(=O)C(C)C` [Example T-64], the IC50 in assay [1] was less than 0.05 µM; on CDK2/Cyclin El it was greater than 0.5 µM; at CDK9/Cyclin Tl it was greater than 0.5 µM; in assay [2], greater than 0.5 µM.
`COC(=O)Nc1ccc2c(-c3nc(N[C@H]4CCCNC4)ncc3Br)c[nH]c2c1Br` [Example T-75]: the half-inhibitory concentration (IC50) in assay [1] is less than 0.05 µM; on CDK2/Cyclin El it was greater than 0.5 µM; at CDK9/Cyclin Tl it was greater than 0.5 µM; in assay [2] it was greater than 0.5 µM.
As for `CCOC(=O)Nc1ccc2c(-c3nc(N[C@H]4CCC(C)(C)NC4)ncc3C(F)(F)F)c[nH]c2c1Cl` [Example T-82], the IC50 is less than 0.05 µM in assay [1], greater than 0.5 µM at CDK2/Cyclin El, greater than 0.5 µM on CDK9/Cyclin Tl and greater than 0.5 µM in assay [2].
In the case of `COC(=O)Nc1ccc2c(-c3nc(NC4CC5(CC(N)C5)C4)ncc3C(F)(F)F)c[nH]c2c1Br` (stereo not shown) [Example T-31], the IC50 in assay [1] was less than 0.05 µM; on CDK2/Cyclin El it was greater than 0.5 µM; on CDK9/Cyclin Tl, greater than 0.5 µM; in assay [2] it was greater than 0.5 µM.
Regarding `COC(=O)Nc1ccc2c(-c3nc(N[C@H]4CCC(C)(C)NC4)ncc3Cl)c[nH]c2c1CC(F)(F)F` [Example T-86], the IC50 in assay [1] was less than 0.05 µM; at CDK2/Cyclin El, greater than 0.5 µM; on CDK9/Cyclin Tl, greater than 0.5 µM; in assay [2], greater than 0.5 µM.
On to `COC(=O)Nc1ccc2c(-c3nc(N[C@H]4CCC[C@H](N)C4)ncc3C(F)(F)F)c[nH]c2c1Br` [Example T-20], for which the IC50 was 0.05 to 0.5 µM in assay [1], greater than 0.5 µM on CDK2/Cyclin El, greater than 0.5 µM at CDK9/Cyclin Tl and greater than 0.5 µM in assay [2].
With `COC(=O)Nc1ccc2c(-c3nc(N[C@H]4CCC5(CC5)NC4)ncc3C(F)(F)F)c[nH]c2c1Cl` [Example T-81], the IC50 in assay [1] is less than 0.05 µM; on CDK2/Cyclin El, greater than 0.5 µM; on CDK9/Cyclin Tl, greater than 0.5 µM; in assay [2] it was greater than 0.5 µM; in assay [3], 55.5 nM; in assay [4] it was 1.26 nM.
Take `CCOC(=O)Nc1ccc2c(-c3nc(N[C@@H]4CNCC(C)(C)C4)ncc3C(F)(F)F)c[nH]c2c1Br` [Example T-43]: the IC50 in assay [1] was less than 0.05 µM; on CDK2/Cyclin El it was greater than 0.5 µM; at CDK9/Cyclin Tl it was greater than 0.5 µM; in assay [2] it was greater than 0.5 µM.
Take `COC(=O)N(C)c1ccc2c(-c3nc(N[C@H]4CCCNC4)ncc3C(F)(F)F)c[nH]c2c1Cl` [Example T-162]: the IC50 was less than 0.05 µM in assay [1], greater than 0.5 µM on CDK2/Cyclin El, greater than 0.5 µM at CDK9/Cyclin Tl and greater than 0.5 µM in assay [2].
`COC(=O)Nc1ccc2c(-c3nc(N[C@H]4CC[C@@H](C)NC4)ncc3C(F)(F)F)c[nH]c2c1C(F)(F)F` [Example T-149]: the IC50 in assay [1] is 0.05 to 0.5 µM; at CDK2/Cyclin El, greater than 0.5 µM; at CDK9/Cyclin Tl, greater than 0.5 µM; in assay [2], greater than 0.5 µM.
`COC(=O)Nc1ccc2c(-c3nc(N[C@H]4CCC5(CC5)NC4)ncc3C(F)(F)F)c[nH]c2c1C(F)(F)F` [Example T-100]: the 50% inhibitory concentration (IC50) is less than 0.05 µM in assay [1], greater than 0.5 µM on CDK2/Cyclin El, greater than 0.5 µM on CDK9/Cyclin Tl and greater than 0.5 µM in assay [2].
For the compound `COC(=O)Nc1ccc2c(-c3nc(N[C@H]4CCC(C)(C)NC4)ncc3C(F)(F)F)c[nH]c2c1Cl` [Example T-80], the IC50 in assay [1] was less than 0.05 µM; at CDK2/Cyclin El, greater than 0.5 µM; at CDK9/Cyclin Tl it was greater than 0.5 µM; in assay [2], greater than 0.5 µM.
As for `COC(=O)Nc1ccc2c(-c3nc(N[C@H]4CCCN(C)C4)ncc3C(F)(F)F)c[nH]c2c1Cl` [Example T-168], the IC50 was less than 0.05 µM in assay [1], greater than 0.5 µM on CDK2/Cyclin El, greater than 0.5 µM at CDK9/Cyclin Tl and greater than 0.5 µM in assay [2].
On to `COC(=O)Nc1ccc2c(-c3nc(N[C@H]4CCCNC4)ncc3C(F)(F)F)c[nH]c2c1S(=O)(=O)C(C)C` [Example T-63], for which the IC50 in assay [1] is less than 0.05 µM; on CDK2/Cyclin El, greater than 0.5 µM; on CDK9/Cyclin Tl it was greater than 0.5 µM; in assay [2], greater than 0.5 µM.

As a reminder, the IC50 is the concentration at which inhibition is half-maximal.
